Test results from PubChem BioAssay (NCI).
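Test compounds were applied to cells in 96-well plates for 48 hours at 5 doses. Definition used: TGI = concentration required for complete inhibition of growth.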 Non-standard residues stand in square brackets, D forms with d. Residues, ends and D or L forms follow the SMILES beside them. ξ: configuration not given here. Pen = CC(C)(S)[C@H](N)C(=O)O; ξL = CC(C)CC(N)C(=O)O

Key:
Experiment in all cases: NCI tumour cell line growth inhibition, 48 h
NCI-H460 lung = test system: NCI-H460 lung
RPMI-8226 leukemia = test system: RPMI-8226 leukemia
786-0 renal = test system: 786-0 renal
HL-60(TB) leukemia = test system: HL-60(TB) leukemia
SW-620 colon = test system: SW-620 colon
TK-10 renal = test system: TK-10 renal
HOP-92 NSCLC = test system: HOP-92 NSCLC
SK-OV-3 ovarian = test system: SK-OV-3 ovarian
U251 CNS = test system: U251 CNS
SF-539 CNS = test system: SF-539 CNS
RXF-631 renal = test system: RXF-631 renal
M19-MEL melanoma = test system: M19-MEL melanoma
SK-MEL-2 melanoma = test system: SK-MEL-2 melanoma
COLO 205 colon = test system: COLO 205 colon
A498 renal = test system: A498 renal
EKVX NSCLC = test system: EKVX NSCLC
MALME-3M melanoma = test system: MALME-3M melanoma
SNB-75 CNS = test system: SNB-75 CNS
K-562 leukemia = test system: K-562 leukemia
DLD-1 colon = test system: DLD-1 colon
UACC-62 melanoma = test system: UACC-62 melanoma
A549 NSCLC = test system: A549 NSCLC
OVCAR-3 ovarian = test system: OVCAR-3 ovarian
HCT-15 colon = test system: HCT-15 colon
KM20L2 colon = test system: KM20L2 colon
CCRF-CEM leukemia = test system: CCRF-CEM leukemia
SK-MEL-5 melanoma = test system: SK-MEL-5 melanoma
RXF 393 renal = test system: RXF 393 renal
KM12 colon = test system: KM12 colon
SNB-19 CNS = test system: SNB-19 CNS
M14 melanoma = test system: M14 melanoma
NCI-H23 lung = test system: NCI-H23 lung
NCI-H226 lung = test system: NCI-H226 lung
CAKI-1 renal = test system: CAKI-1 renal
SF-295 CNS = test system: SF-295 CNS
HOP-62 NSCLC = test system: HOP-62 NSCLC
IGROV1 ovarian = test system: IGROV1 ovarian
SF-268 CNS = test system: SF-268 CNS
HT29 colon = test system: HT29 colon
HCT-116 colon = test system: HCT-116 colon
HOP-18 NSCLC = test system: HOP-18 NSCLC
OVCAR-5 ovarian = test system: OVCAR-5 ovarian
MOLT-4 leukemia = test system: MOLT-4 leukemia
SNB-78 CNS = test system: SNB-78 CNS
DMS 114 small cell lung = test system: DMS 114 small cell lung
LOX IMVI melanoma = test system: LOX IMVI melanoma
UACC-257 melanoma = test system: UACC-257 melanoma
DMS 273 small cell lung = test system: DMS 273 small cell lung
ACHN renal = test system: ACHN renal
OVCAR-4 ovarian = test system: OVCAR-4 ovarian
SN12C renal = test system: SN12C renal
SR leukemia = test system: SR leukemia
LXFL 529 NSCLC = test system: LXFL 529 NSCLC
OVCAR-8 ovarian = test system: OVCAR-8 ovarian
UO-31 renal = test system: UO-31 renal
SK-MEL-28 melanoma = test system: SK-MEL-28 melanoma
HCC-2998 colon = test system: HCC-2998 colon
P388 leukemia = test system: P388 leukemia
P388/ADR leukemia = test system: P388/ADR leukemia
XF 498 CNS = test system: XF 498 CNS
SN12K1 renal = test system: SN12K1 renal

O=[N+]([O-])c1ccc(Cl)c(C2CC(c3cccc4ccccc34)=Nc3ccccc3S2=O)c1 (configuration not stated) was tested, and the TGI (NCI-H460 lung) was over 76.4 µM, the TGI (RPMI-8226 leukemia) was 7.7 µM and the TGI (786-0 renal) was 28.5 µM. The TGI (HL-60(TB) leukemia) was 34.1 µM, the TGI (SW-620 colon) was 33.5 µM and the TGI (TK-10 renal) was 98.2 µM. The TGI (HOP-92 NSCLC) was 22.8 µM, the TGI (SK-OV-3 ovarian) was over 100 µM and the TGI (U251 CNS) was 20.2 µM. For the same compound, the TGI (SF-539 CNS) was 19.1 µM, the TGI (RXF-631 renal) was over 100 µM and the TGI (M19-MEL melanoma) was over 62.7 µM. It also gave a TGI (SK-MEL-2 melanoma) of 37.4 µM, a TGI (COLO 205 colon) of 97.7 µM and a TGI (A498 renal) of 64.7 µM. For the same compound, the TGI (EKVX NSCLC) was over 100 µM, the TGI (MALME-3M melanoma) was 42.5 µM and the TGI (SNB-75 CNS) was over 100 µM. For the same compound, the TGI (K-562 leukemia) was 37 µM, the TGI (DLD-1 colon) was 26.1 µM and the TGI (UACC-62 melanoma) was 40.8 µM. The TGI (A549 NSCLC) was over 100 µM, the TGI (OVCAR-3 ovarian) was 83.4 µM and the TGI (HCT-15 colon) was over 100 µM. It also gave a TGI (KM20L2 colon) of over 63.6 µM, a TGI (CCRF-CEM leukemia) of 11.1 µM and a TGI (SK-MEL-5 melanoma) of 40 µM. It also gave a TGI (RXF 393 renal) of 21.1 µM, a TGI (KM12 colon) of over 100 µM and a TGI (SNB-19 CNS) of over 53.8 µM. It also gave a TGI (M14 melanoma) of 59.7 µM, a TGI (NCI-H23 lung) of 17.4 µM and a TGI (NCI-H226 lung) of over 54.5 µM. For the same compound, the TGI (CAKI-1 renal) was over 69.8 µM, the TGI (SF-295 CNS) was 61 µM and the TGI (HOP-62 NSCLC) was over 62.6 µM. It also gave a TGI (IGROV1 ovarian) of over 85.1 µM, a TGI (SF-268 CNS) of over 100 µM and a TGI (HT29 colon) of 37.9 µM. The TGI (HCT-116 colon) was 35.1 µM, the TGI (HOP-18 NSCLC) was over 100 µM and the TGI (OVCAR-5 ovarian) was 76.1 µM. The TGI (MOLT-4 leukemia) was 62.8 µM, the TGI (SNB-78 CNS) was 38.9 µM and the TGI (DMS 114 small cell lung) was 41.1 µM. The TGI (LOX IMVI melanoma) was over 31.6 µM, the TGI (UACC-257 melanoma) was over 86.4 µM and the TGI (DMS 273 small cell lung) was over 100 µM. It also gave a TGI (ACHN renal) of 52.9 µM, a TGI (OVCAR-4 ovarian) of over 84.2 µM and a TGI (SN12C renal) of over 60.4 µM. The TGI (SR leukemia) was 93.1 µM, the TGI (LXFL 529 NSCLC) was 52.8 µM and the TGI (OVCAR-8 ovarian) was 20.8 µM. It also gave a TGI (UO-31 renal) of over 46.7 µM, a TGI (SK-MEL-28 melanoma) of 42.8 µM and a TGI (HCC-2998 colon) of over 50.3 µM.
For CSCC[C@H](NC(=O)C(CC(C)C)NC(=O)[C@H](Cc1c[nH]cn1)NC(=O)CNC(=O)[C@@H](NC(=O)[C@@H](C)NC(=O)[C@H](Cc1c[nH]c2ccccc12)NC(=O)[C@H](CCC(N)=O)NC(=O)[C@@H](N)CC(N)=O)C(C)(C)SC)C(N)=O (some centres not stated) (H-NQW[dA][Pen](Me)GH[ξL]M-NH2), the TGI (P388 leukemia) was over 100 µM, the TGI (P388/ADR leukemia) was over 100 µM and the TGI (HOP-92 NSCLC) was over 100 µM. The TGI (XF 498 CNS) was over 100 µM, the TGI (M19-MEL melanoma) was over 100 µM and the TGI (DLD-1 colon) was over 100 µM. For the same compound, the TGI (KM20L2 colon) was over 100 µM, the TGI (NCI-H23 lung) was over 100 µM and the TGI (NCI-H226 lung) was over 100 µM. The TGI (SN12K1 renal) was over 100 µM, the TGI (HOP-18 NSCLC) was over 100 µM and the TGI (SNB-78 CNS) was over 100 µM. It also gave a TGI (DMS 114 small cell lung) of over 100 µM, a TGI (UACC-257 melanoma) of over 100 µM and a TGI (DMS 273 small cell lung) of over 100 µM.
